Reference: PubChem BioAssay (NCI)
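Cultured in 96-well plates, cells were exposed to test compound for 48 hours across five concentrations. GI50 is the concentration that inhibits growth by half. TGI: concentration producing complete growth inhibition.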

Legend:
Assay in all cases: NCI-60 cell line screen, 48 h
SF-539 CNS = test system: SF-539 CNS
SNB-19 CNS = test system: SNB-19 CNS
MOLT-4 leukemia = test system: MOLT-4 leukemia
NCI-H460 lung = test system: NCI-H460 lung
IGROV1 ovarian = test system: IGROV1 ovarian
SK-OV-3 ovarian = test system: SK-OV-3 ovarian
HS 578T breast = test system: HS 578T breast
NCI-H226 lung = test system: NCI-H226 lung
RXF 393 renal = test system: RXF 393 renal
CCRF-CEM leukemia = test system: CCRF-CEM leukemia

Structure (SMILES) | GI50 (SF-539 CNS) [µM] | TGI (SF-539 CNS) [µM] | GI50 (SNB-19 CNS) [µM] | TGI (SNB-19 CNS) [µM] | GI50 (MOLT-4 leukemia) [µM] | TGI (MOLT-4 leukemia) [µM] | GI50 (NCI-H460 lung) [µM] | TGI (NCI-H460 lung) [µM] | GI50 (IGROV1 ovarian) [µM] | TGI (IGROV1 ovarian) [µM] | GI50 (SK-OV-3 ovarian) [µM] | TGI (SK-OV-3 ovarian) [µM] | GI50 (HS 578T breast) [µM] | TGI (HS 578T breast) [µM] | GI50 (NCI-H226 lung) [µM] | TGI (NCI-H226 lung) [µM] | GI50 (RXF 393 renal) [µM] | TGI (RXF 393 renal) [µM] | GI50 (CCRF-CEM leukemia) [µM] | TGI (CCRF-CEM leukemia) [µM]
COc1c2ccoc2c(/C=C/C=O)c2oc(-c3ccccc3)cc(=O)c12 | 3.59 | 16.4 | 12 | > 100 | 2.06 | 5.24 | 11.3 | 61.4 | 17.5 | > 100 | 6.34 | 42.6 | 7.2 | > 100 | 4.14 | 20.4 | 4.26 | 14.7 | – | –
CN(C)c1ccc(-c2cc(-c3ccc(Nc4nc(Nc5ccc(Cl)cc5)nc(Nc5ccc(Cl)cc5)n4)cc3)no2)cc1 | 5.18 | 21.2 | 18.7 | > 100 | 1.32 | 3.38 | 3.03 | 12.3 | 2.06 | 15 | 20 | 67 | 3.97 | > 100 | 20.2 | > 100 | 2.76 | 6.04 | 2.34 | 6.47
C[C@@H](CS(C)(=O)=O)Nc1ncc2cc(Oc3ccc(F)cc3F)c(=O)n(C)c2n1 | > 25 | > 25 | > 25 | > 25 | > 25 | > 25 | > 25 | > 25 | > 25 | > 25 | > 25 | > 25 | > 25 | > 25 | > 25 | > 25 | > 25 | > 25 | > 25 | > 25
Cc1nc2c(nc1C)C(=O)c1ccccc1C2=O | – | 11.2 | – | 19.4 | – | 48 | – | 3.2 | – | 27.2 | – | 82.6 | – | 6.47 | – | 13.3 | – | 53.9 | – | 46.9
O=C(CCl)N1c2ccccc2Oc2ccc3ccccc3c21 | 1.59 | 3.1 | 1.86 | 3.44 | 0.339 | 1.95 | 2 | 4.11 | 0.83 | 2.53 | 2.51 | 6.09 | 2.29 | – | 1.63 | 3.26 | 1.73 | 3.17 | 0.163 | 3.39
COc1cc2nc(-c3ccc(C(F)(F)F)cc3)cc(OCCCN3CCC(O)CC3)c2cc1OC | 5.75 | 20.8 | 10.5 | 28.3 | 3.27 | 18.4 | 0.835 | 16 | 0.9 | 18.2 | 10.6 | 25.3 | 3.75 | 20.9 | 1.59 | 5.37 | 1.34 | 7.53 | 3.27 | 17.7
COc1cc(C(=O)/C=C/c2sc(Cl)nc2Cl)cc(OC)c1OC | 1.72 | 3.12 | 1.72 | 3.18 | 2.21 | 5.49 | 2.29 | 5.29 | 1.68 | 3.22 | 6.43 | 19.8 | 2.02 | 5.54 | 2.4 | 6.31 | 1.7 | 3.12 | 1.91 | 4.95
NC(CSC(c1ccccc1)(c1ccccc1)c1ccc2c(c1)OCO2)C(=O)O (stereo not given) | 0.392 | > 41 | 0.665 | > 100 | 0.631 | 17 | 0.375 | > 40 | 2.5 | > 100 | 0.42 | > 100 | 0.392 | 24.6 | 15.9 | > 84.8 | 0.499 | 54.1 | 0.306 | > 41.5
O[C@H]1[C@H]2c3cc4c(cc3CN3CCC(=C[C@@H]1O)[C@H]23)OCO4 | – | 5.74 | – | 14.9 | – | 4.65 | – | 5.88 | – | 0.874 | – | 20.5 | – | > 28.4 | – | 29.6 | – | 2.6 | – | 7.51
O=C1c2cccnc2-c2nc(-c3ccccc3[N+](=O)[O-])cc3c2c1nc1ccccc13 | 6.3 | 24.3 | 24.2 | 84.7 | – | > 100 | 12 | 33.8 | 12.3 | 83.3 | 67 | > 100 | 31.2 | 86.4 | > 100 | > 100 | 20.7 | 98.3 | > 100 | > 100
Fc1ccc(Nc2ncnc3ccc(-c4cnc5[nH]ccc5c4)cc23)cc1Cl | 2.3 | 7.65 | 1.94 | 5.94 | > 20.8 | > 100 | 1.83 | 4.06 | 0.45 | 3.41 | 4.62 | 32.6 | 2.66 | > 45.9 | 1.99 | 4.97 | 1.53 | 6.27 | 7.83 | > 100
CCOc1ccccc1-n1c(CN2CCN(C(=O)COc3ccc(CNCCCCCCN4C5CCCC4CC(OC(=O)Nc4cc(C)ccc4OC)C5)cc3)CC2)nc2ccccc2c1=O (stereo not given) | 1.69 | 3.14 | 1.76 | 3.35 | 0.68 | 1.5 | 0.806 | 1.94 | 1.72 | 3.47 | 1.89 | 3.45 | 1.86 | 3.94 | 1.88 | 3.91 | 1.38 | 2.88 | 0.16 | 1.21
COC(=O)Nc1nc2ccc(S(=O)c3ccccc3)cc2[nH]1 (stereo not given) | 4.64 | 58.5 | 6.12 | > 100 | 5.86 | > 100 | 4.17 | > 100 | 7.51 | > 100 | 3.23 | 12.4 | 19.6 | > 100 | 4.06 | > 100 | 3.28 | 26.7 | 5.16 | > 100
CNC(=O)c1ccccc1Nc1nc(Nc2ccc(N3CCOCC3)cc2OC)ncc1Cl | 1.29 | 7.68 | 2.05 | > 100 | 1.85 | > 63.7 | 0.361 | > 34.4 | 0.277 | 2.15 | 0.543 | 3.7 | 1.7 | > 26.4 | 1.01 | > 74 | 0.797 | 3.31 | 0.531 | > 81.9
CC(=O)[O][Hg][c]1c(N)c(C)cc(C)c1F | 1.57 | 3.11 | 1.99 | 5.13 | 1.22 | 7.12 | 1.74 | 4.3 | 0.939 | 2.79 | 4.36 | 15.5 | 1.6 | 6.85 | 16.2 | 44.5 | 1.52 | 2.88 | 0.401 | > 24.3
COc1ccc(-c2cc(-c3ccc(Nc4nc(Nc5ccccc5)nc(Nc5ccc(Cl)cc5)n4)cc3)nc(N)c2C#N)cc1 | 0.857 | 1.77 | > 24.8 | > 50 | 0.958 | > 50 | 2.18 | > 39 | 0.546 | 1.41 | > 28.3 | > 50 | 1.21 | 5.08 | 1.08 | 2.73 | 0.654 | 1.89 | 1.7 | > 50
CSc1ccccc1C#C/C=C\C#Cc1ccccc1N1CCCC1=O | > 11.4 | > 50 | > 11 | > 50 | – | > 17.6 | – | > 50 | 14.9 | > 50 | – | > 50 | > 9.95 | > 50 | > 11.4 | > 50 | 2.91 | 25.8 | – | > 50
O=C(CN1CCN(c2cc3c(cc2F)c(=O)c(C(=O)N/N=C/c2ccccc2O)cn3C2CC2)CC1)N/N=C\c1ccccc1O | 0.829 | > 64 | 1.18 | > 100 | 0.267 | > 100 | 0.367 | > 48.7 | 0.787 | > 100 | 0.763 | > 100 | 8.57 | > 100 | 3.71 | > 100 | 1.32 | > 100 | 0.167 | > 100
Cc1cc(=O)[nH]c2cc3oc4ccccc4c3cc12 | – | > 100 | – | > 100 | – | > 48.5 | – | > 100 | – | > 100 | – | > 100 | – | > 100 | – | > 100 | – | > 100 | – | > 75.9
Cc1cc(=O)n2[nH]c(-c3ccc(C(C)(C)C)cc3)cc2n1 | 9.01 | > 100 | 10.1 | > 100 | 6.56 | > 100 | 3.03 | 38 | 7.36 | > 100 | 6.8 | 86 | 3.74 | 33.3 | 5.28 | > 100 | 4.59 | 28.2 | 4.19 | > 100
O=C(NCCNc1nccc(-c2c(-c3cccc(O)c3)nc3sccn23)n1)c1ccccc1O | 7.27 | 24.5 | 12.6 | > 78.7 | 4.87 | > 52.2 | 4.16 | 19.6 | 4.52 | > 73 | 4.31 | 39.7 | 3.15 | 16 | 9.24 | 32.3 | 2.78 | 16.8 | 1.21 | 19.4
CCCCCCCC(=O)SCC/C=C/[C@@H]1CC(=O)NCc2cccc(n2)C2=N[C@@](C)(CS2)C(=O)N[C@@H](C(C)C)C(=O)N1 | 2.72 | > 33.3 | 2.06 | > 33.3 | 1.01 | > 33.3 | 0.532 | > 33.3 | 0.224 | 15.2 | 1.23 | 11 | 0.378 | > 33.3 | 7.19 | > 33.3 | 2.14 | 19.9 | 1.47 | > 33.3
CC[C@@]12CCCN3CC[C@]4(c5cccc(OC)c5N(C(C)=O)[C@@H]4CC1)[C@H]32 | – | > 100 | – | > 100 | – | 61.3 | – | > 100 | – | > 100 | – | > 100 | – | > 100 | – | > 100 | – | > 100 | – | 57.1
C=C(CNCCO)[C@@H]1CC[C@]2(CO)CC[C@]3(C)[C@H](CC[C@@H]4[C@@]5(C)CCC(N)C(C)(C)[C@@H]5CC[C@]43C)[C@@H]12 (stereo not given in full) | 1.75 | 3.21 | 2.27 | 5.23 | 1.99 | 5.84 | 1.94 | 4.12 | 6.05 | 20.8 | 11.1 | 23.3 | 2.33 | 6.92 | 11 | 27.9 | 1.53 | 3.08 | 2.04 | 5.93
CC1=C(C(=O)Nc2ccc(F)c(Cl)c2)C(c2ccc(Cl)cc2)NC(=O)N1 (stereo not given) | 14 | 29.7 | 33.1 | > 100 | – | – | 17.5 | 37.3 | 12.6 | 31.9 | 81.8 | > 100 | 21.5 | 51.1 | 15.5 | 38.6 | 17.6 | 37.2 | 15.3 | 38.8
COc1cc2c(c(OC)c1O)C(=O)C(OC)C(c1ccc(O)c(O)c1)O2 (stereo not given) | 0.0798 | 4.56 | 0.275 | > 100 | 0.482 | > 100 | 0.364 | > 100 | 0.553 | > 100 | 8.23 | > 100 | 0.0889 | 46.1 | 4.8 | > 100 | 0.305 | > 100 | 0.428 | > 31
